In paper PMC5248581 (PeerJ, 2017):
Entries after “also recorded” stand apart in the source; their conditions may differ. Where two headings read alike, the source gives them in different places. Residues, ends and D or L forms follow the SMILES beside them.

Columns and labels:
[1] = biological target: T1, human isolated umbilical vein (BK B2R; histamine H1R) (Homo sapiens, UniProt P30411)
T1 sequence (P30411 1-391): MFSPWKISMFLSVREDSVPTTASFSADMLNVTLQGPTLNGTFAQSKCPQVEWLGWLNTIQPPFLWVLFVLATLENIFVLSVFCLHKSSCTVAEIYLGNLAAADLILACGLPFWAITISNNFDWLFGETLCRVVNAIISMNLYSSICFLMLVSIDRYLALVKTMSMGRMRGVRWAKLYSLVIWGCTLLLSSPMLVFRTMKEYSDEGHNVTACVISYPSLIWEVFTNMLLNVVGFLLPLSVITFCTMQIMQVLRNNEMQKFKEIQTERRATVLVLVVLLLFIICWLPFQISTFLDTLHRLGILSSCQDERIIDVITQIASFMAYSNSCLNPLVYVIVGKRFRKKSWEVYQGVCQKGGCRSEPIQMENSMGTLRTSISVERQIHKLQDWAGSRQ
Source text: The institutional research ethics board (CHU de Québec) approved the anonymous use of human umbilical cord segments obtained after elective cesarean section deliveries (file number: 2012-323). Informed written consent was obtained from mothers.
(§1) Results are presented as means ± s.e.m. Radioligand binding data were fitted by nonlinear regression to a one-site competition equation using a least-square method (Prism 5.0; GraphPad Software Inc., San Diego, CA, USA) and IC50 values calculated from this procedure. The same computer program was used to draw concentration-effect curves (least square fitting of sigmoidal dose–response equation with variable slope) and to derive contractile EC50 values. Data describing baseline values of heart rate and mean arterial blood pressure and hypotensive responses to peptides in anesthetized rats were assessed by using one-way analysis of variance (ANOVA) followed by the Dunnett’s test (repeated comparison with a common control). The effects of drugs on the hypotensive responses to each dose of MK were assessed by using ANOVA followed by the Dunnett’s test.

[2] = LC-MS of MK incubated with human umbilical vein ring; format: in vitro ADME; conditions: 37 °C; for fragment generated from MK: MK 1 µM in Krebs with umbilical vein ring, 5 or 15 min, LC-MS, duplicate; for increase of fragment ion intensity on reaction with tissue: vs. contaminant in commercial MK, MK 1 µM
Description: Synthetic MK (1 µM) was submitted to digestion in 2 ml of sterile-filtered Krebs solution in the presence of a freshly prepared ring of human umbilical vein (wet weight 25–37 mg). The tubes containing these materials were incubated at 37 °C for 5 or 15 min; the tissues were then removed and five volumes of cold ethanol (10 ml) were added to each tube. The tubes were incubated for 1 h on ice, centrifuged at 10,000 g to remove precipitated proteins and the kinin-containing supernatants were collected (procedure previously validated, [Raymond et al., 1995]). The supernatants were then completely evaporated to dryness in a Speedvac system and reconstituted in a small volume of water. Peptides were desalted on stage tip (C18), vacuum dried and then resuspended into 0.1% formic acid. One hundred fmol of each sample (starting MK quantity) was analyzed by mass spectrometry.
Mass spectrometry: peptide samples were separated by online reversed-phase (RP) nanoscale capillary liquid chromatography (nanoLC) and analyzed by electrospray mass spectrometry (ES MS/MS). The experiments were performed with a Ekspert NanoLC425 (Eksigent) coupled to a 5600+ mass spectrometer (AB Sciex, Framingham, MA, USA) equipped with a nanoelectrospray ion source. Peptide separation took place on a picofrit column (Reprosil 3u, 120A C18, 15 cm × 0.075 mm internal diameter). Peptides were eluted with a linear gradient from 5–35% solvent B (acetonitrile, 0.1% formic acid) in 35 min, at 300 nL/min. Mass spectra were acquired using a data dependent acquisition mode using Analyst software version 1.7. […] Dynamic exclusion was set for a period of 3 s and a tolerance of 100 ppm
Database searching: MGF peak list files were created using Protein Pilot version 5.0 software (Sciex) utilizing the Paragon and Progroup algorithms. MGF sample files were then analyzed using Mascot (Matrix Science, London, UK; version 2.5.1).
Mascot was set up to search the MK sequence assuming that the digestion enzyme was non-specific. Mascot was searched with a fragment ion mass tolerance of 0.100 Da and a parent ion tolerance of 0.100 Da. Deamidation of asparagine and glutamine and oxidation of methionine were specified in Mascot as variable modifications. Scaffold (version Scaffold_4.7.1; Proteome Software Inc., Portland, OR, USA) was used to validate MS/MS based peptide and protein identifications.
Data processing: Peak View 1.2.0.1 (Sciex) was used to extract the specific precursor masses and calculate the area under the curve. Extracted ion chromatoram (XIC) were generated from the TOF MS using a peak width of 0.05.

male Sprague-Dawley rats = conditions: for Basal mean arterial blood pressure after pre-treatment / Basal heart rate after pre-treatment: 15 min after i.v., enalaprilat 0.1 mg/kg n=6, icatibant 25 µg/kg n=6, pyrilamine 5 mg/kg n=16, means ± s.e.m.; for Basal mean arterial blood pressure after pre-treatment: control 96.5 ± 2.5; for Basal heart rate after pre-treatment: control 351 ± 10, * P < 0.01 vs control; for effect of pretreatment on hypotensive effect of MK: enalaprilat 0.1 mg/kg, icatibant 25 µg/kg, 15 min before MK
Description: All surgical and experimental procedures were reviewed and approved by the Animal Care and Handling Committee of Laval University, in accordance with the Canadian Council on Animal Care (file no. 2012-223). Experiments were performed on male Sprague-Dawley rats (300–375 g) purchased from Charles River Laboratories (St-Constant, Qc, Canada). Only animals of the male gender have been studied to be consistent with related and recently published data ([Jean et al., 2016a]). The rats were housed in a temperature-controlled room (22 ± 1 °C) on a 12 h/12 h light-dark cycle (lights on at 0600) and had free access to normal chow diet and tap water. They were allowed to acclimate to their environmental conditions for one week prior to being studied. At the end of the acclimation period, the rats were anesthetised with sodium pentobarbital (50 mg kg^−1, i.p., supplemented as required) and had one catheter implanted into the right jugular vein (for intravenous ( i.v.) injection) and one into the left femoral artery (for direct and continuous measurement of blood pressure and heart rate as previously described, [Jean et al., 2016a]). In some experiments, a miniaturized pulsed Doppler flow probe ([Haywood et al., 1981]) was implanted around the distal abdominal aorta (below the level of the ileocaecal artery) through a midline abdominal incision to monitor changes in hindquarter hemodynamic, according to the method previously developed by [Gardiner & Bennett (1988)] and as previously described ([Bachelard et al., 1992]; [Jean et al., 2016a]). Experiments started at least 30 min following the end of surgery in anesthetised rats.
Baseline heart rate and phasic and mean arterial blood pressure were recorded over a period of 15 min in anesthetized rats. […] Peptides were dissolved in isotonic saline (0.9% NaCl) containing 0.1% BSA to prevent the adsorption of peptide to the glassware and plastic surfaces. All i.v. injections were given as 100 µl boluses which were washed in with a further 100 µl of saline (the dead space of the catheter). Only one peptide was tested per group of rats and each injection started with saline-BSA 0.1% followed by the lowest dose of peptide. The next dose was administered once all recorded cardiovascular parameters had returned to baseline after the previous injection (usually 2–10 min). At the end of the experiments each animal was euthanized with an overdose of sodium pentobarbital (240 mg/kg, i.v.).
In these experiments, enalaprilat was intravenously administered as bolus (0.1 mg/kg, 0.1 ml) following a 10 min period of baseline measurements of heart rate and blood pressure. Fifteen minutes later, a dose–response curve to MK was obtained, as described above. […] In these experiments, icatibant was intravenously administered as bolus (25 µg/kg, 0.1 ml) 15 min before the i.v. injection of increasing doses of MK, as above. […] In these experiments, pyrilamine was intravenously administered as bolus (5 mg/kg, 0.1 ml) 15 min before the i.v. injection of increasing doses of MK, as above.
as §1, with “control).” for “control). The effects of drugs on the hypotensive responses to each dose of MK were assessed by using ANOVA followed by the Dunnett’s test.”

Cl.NCCc1ccc(S(=O)(=O)F)cc1 [pefabloc SC]
effect of protease/peptidase inhibitor on contractile potency of MK ([1]; inhibitor 30 min before MK): failed to change the concentration-effect curve of MK

O=C(N[C@H]1CCS[C@H]2CCC[C@@H](C(=O)O)N2C1=O)[C@@H](S)Cc1ccccc1 [omapatrilat]
effect of protease/peptidase inhibitor on contractile potency of MK ([1]; inhibitor 30 min before MK): failed to modify the contractile effect of MK

DLPKINRKGPRPPGF [N-terminal fragment of MK]
fragment generated from MK [2]: Abundant

CC(C)C[C@H](NC(=O)[C@H]1O[C@@H]1C(=O)O)C(=O)NCCCCN=C(N)N [E-64]
effect of protease/peptidase inhibitor on contractile potency of MK ([1]; inhibitor 30 min before MK): failed to change the concentration-effect curve of MK

CC(=O)N[C@@H](CC(C)C)C(=O)N[C@@H](CC(C)C)C(=O)N[C@H](C=O)CCCNC(=N)N [leupeptin]
effect of protease/peptidase inhibitor on contractile potency of MK ([1]; inhibitor 30 min before MK): The same applied

N=C(N)NCCC[C@H](NC(=O)[C@H](Cc1ccccc1)NC(=O)[C@@H]1CCCN1C(=O)[C@H](CO)NC(=O)[C@H](Cc1ccccc1)NC(=O)CNC(=O)[C@@H]1CCCN1C(=O)[C@@H]1CCCN1C(=O)[C@H](CCCNC(=N)N)NC(=O)[C@@H]1CCCN1C(=O)CNC(=O)[C@@H](N)CCCCN)C(=O)O [Lys-Gly-Pro-BK] (H-KGPRPPGFSPFR-OH)
fragment generated from MK [2]: evidenced in a time-dependent manner; also recorded: major C-terminal metabolite | increase of fragment ion intensity on reaction with tissue [2]: 3-4 -fold

N=C(N)NCCC[C@H](NC(=O)[C@H](Cc1ccccc1)NC(=O)[C@@H]1CCCN1C(=O)[C@H](CO)NC(=O)[C@H](Cc1ccccc1)NC(=O)CNC(=O)[C@@H]1CCCN1C(=O)[C@@H]1CCCN1C(=O)[C@H](CCCNC(=N)N)NC(=O)[C@@H]1CCCN1C(=O)CN)C(=O)O [Gly-Pro-BK] (H-GPRPPGFSPFR-OH)
fragment generated from MK [2]: evidenced in a time-dependent manner; also recorded: metabolite that accumulates | increase of fragment ion intensity on reaction with tissue [2]: 3-4 -fold

COc1ccc(CN(CCN(C)C)c2ccccn2)cc1 [pyrilamine]
effect of receptor antagonist on MK-induced contraction ([1]; antagonist 1 µM, 30 min before MK): did not reduce the venous effect of MK | effect of antagonist on histamine-induced contraction ([1]; antagonist 1 µM, 30 min before histamine): profoundly and competitively inhibiting | Basal mean arterial blood pressure after pre-treatment (male Sprague-Dawley rats): 87.4 ± 2.7 | Basal heart rate after pre-treatment (male Sprague-Dawley rats): 335 ± 6.1 | effect of pretreatment on hypotensive effect of MK (male Sprague-Dawley rats; pyrilamine 5 mg/kg i.v.): did not antagonize the effects of MK | effect of pretreatment on hypotensive effect of histamine (male Sprague-Dawley rats; pyrilamine 5 mg/kg i.v., histamine 6.4 µg/kg i.v.): abated the hypotensive effect of histamine

C[C@H](N[C@@H](CCc1ccccc1)C(=O)O)C(=O)N1CCC[C@H]1C(=O)O [enalaprilat]
Basal mean arterial blood pressure after pre-treatment (male Sprague-Dawley rats): 94.9 ± 4.6 | Basal heart rate after pre-treatment (male Sprague-Dawley rats): slight but significant increase in basal HR | Basal heart rate after pre-treatment (male Sprague-Dawley rats; listed as Enalaprilat): 417 ± 13^* | effect of pretreatment on hypotensive effect of MK (male Sprague-Dawley rats; pyrilamine 5 mg/kg i.v.): not significantly potentiated

O=C([O-])CN(CCN(CC(=O)[O-])CC(=O)[O-])CC(=O)[O-].[Ca+2].[Na+].[Na+] [EDTA calcium disodium]
effect of protease/peptidase inhibitor on contractile potency of MK [1]: The same applied

DLPKINRKGPRPP [N-terminal fragment of MK]
fragment generated from MK [2]: Abundant
